# Experimental data from US10064858B2, “Methods and compositions for treating bacterial infections with iron chelators” (THE UNITED STATES OF AMERICA, AS REPRESENTED BY THE …, priority 2011, dated 2018).
# Like-named read-outs stand apart in the source and are kept apart here.
# Columns and labels:
# Type in all cases: cell-based
# E. coli EC35218 = test: Time-kill assay in CAMHB; conditions: E. coli 35718; 1.5×MIC Apo6619 in combination with 0.75×MIC Rifampin; 0, 5 and 24 hours
# Method: (§1) Reductions in colony forming units (CFU)/mL were determined over time (time-kill assay) after exposure to VK28 and deferiprone (DFP), the two iron chelators that performed best in MIC assays when compared to controls. To better represent the iron content found in the human body, MIC and time-kill assays were also determined in minimal media and tissue culture media. Time-Kill assays were performed as previously described in G. P. Neupane et al., “In vitro time-kill activities of ciprofloxacin alone and in combination with the iron chelator deferasirox against Vibrio vulnificus,” European Journal of Clinical Microbiology and Infectious Diseases, 407-410 (2010); and R. L. White, et al., “Comparison of Three Different In Vitro Methods of Detecting synergy: Time-Kill, Checkerboard, and E test,” Journal of Antimicrobial Agents and Chemotherapy, 1914-1918 (1996). Initial inocula, for example 1×10^6 CFU/mL or 1×10^7 CFU/mL were challenged with iron chelator with and/or without an antibiotic. Cells were allowed to grow in CAMHB at 37° C. for 24 hours. Time-kill results were analyzed by determining the change in log 10 numbers of CFU/ml at 0, 6, and 24 h, compared to counts at 0 h. Antimicrobials were considered bactericidal at the lowest concentration that reduced the size of the original inoculum by >3 log 10 CFU/ml (99.9%) over each of the time periods and were considered bacteriostatic if the inoculum's size was reduced by 0 to <3 log 10 CFU/ml.
# In this example, time-kill assays were performed as described in Example 9 against different multi-drug resistant bacteria, namely E. coli and MRSA.
# In this example, time-kill assays were performed as described in Example 9 using ApoL1 as the iron chelator against two different E. coli strains. […] Time-kill results were analyzed by determining the change in log 10 numbers of CFU/mL at 6 and 24 hours.
# In this example, time-kill assays were performed as described in Example 9 using Apo6619 as the iron chelator in combination with Rifampin against E. coli 35718. […] Time-kill results were analyzed by determining the change in log 10 numbers of CFU/mL at 0, 5 and 24 hours.
# [1] = system: multi-drug resistant bacterial species; test: Time kill method, synergy with rifampin (summary)
# Method: as §1
# [2] = system: clinical isolates of A. baumannii; test: MIC for clinical isolates in RPMI (low iron) media (Table 4); parameters: key to MIC of Iron Chelators: NG = no growth in table 4; conditions: for MIC: Acinetobacter baumannii
# Method: (§2) […] […] Tests were performed in triplicate. MIC of iron chelators were determined for noscomial ESKAPE pathogens.
# For a number of strains, the iron chelators produced no growth of bacteria (NG).
# E. coli [3] = test: MIC in RPMI1640 media (Table 2)
# Method: as §2
# (§3) This media is closer to the iron levels in the human body. MICs are in ug/mL.
# Acinetobacter baumannii [4] = test: MIC in RPMI1640 media (Table 2)
# Method: as §2, §3
# K. pneumonia [5] = test: MIC in RPMI1640 media (Table 2); conditions: Klebsiella pneumoniae
# Method: as §2, §3
# P. aeruginosa [6] = test: MIC in RPMI1640 media (Table 2); conditions: Pseudomonas aeruginosa
# Method: as §2, §3
# E. coli [7] = test: MIC, CLSI microdilution (Tables 1 and 6); conditions: Escherichia coli, Table 1, read-out: MIC of Iron Chelators
# Method: (§4) The minimal inhibitory concentration (MIC) of non-toxic iron chelators was determined against standard strains of MDR bacteria and clinical isolates according to the guidelines of the Clinical and Laboratory Standards Institute (CLSI).
# (§5) Individual MICs were determined following the microdilution method recommended by CLSI in cationic-adjusted Mueller-Hinton Broth (CAMHB), or M9 media. […] Tests were performed in triplicate. MIC of iron chelators were determined for noscomial ESKAPE pathogens.
# (§6) MIC were determined in CAMHB media as described above in Example 8.
# Acinetobacter baumannii [8] = test: MIC, CLSI microdilution (Tables 1 and 6)
# Method: as §4, §5, §6
# K. pneumonia [9] = test: MIC, CLSI microdilution (Tables 1 and 6); conditions: Klebsiella pneumoniae, Table 1, read-out: MIC of Iron Chelators
# Method: as §4, §5, §6
# P. aeruginosa [10] = test: MIC, CLSI microdilution (Tables 1 and 6); conditions: Pseudomonas aeruginosa, Table 1, read-out: MIC of Iron Chelators
# Method: as §4, §5, §6
# S. aureus = test: MIC, CLSI microdilution (Tables 1 and 6); conditions: Staphylococcus aureus, Table 1, read-out: MIC of Iron Chelators
# Method: as §4, §5, §6
structure (smiles),measurement,setting,value
"CNC(=O)c1c(O)c(=O)cc(C)n1C1CC1 [Apo6619, 1-cyclopropyl-3-hydroxy-6-methyl-4-oxo-1,4-dihydro-pyridine-2-carboxylic acid methylamide]",time kill curves,E. coli EC35218,combinational effect
same,"synergy with rifampin, time kill method",[1],strong synergy
same,MIC of Iron Chelators,[2]; AB967,NG
same,MIC of Iron Chelators,[2]; AB2828,NG
same,MIC of Iron Chelators,[2]; AB3340,NG
same,MIC of Iron Chelators,[2]; AB3560,NG
same,MIC of Iron Chelators,[2]; AB3927,NG
same,MIC,"[2]; AB3638, read-out: MIC of Iron Chelators",250 µg/mL
same,MIC,"[2]; AB3785, read-out: MIC of Iron Chelators",125 µg/mL
same,MIC,"[2]; AB3806, read-out: MIC of Iron Chelators",250 µg/mL
same,MIC,"[2]; AB3917, read-out: MIC of Iron Chelators",250 µg/mL
same,MIC,"[2]; AB4025, read-out: MIC of Iron Chelators",250 µg/mL
same,MIC,"[2]; AB4026, read-out: MIC of Iron Chelators",250 µg/mL
same,MIC,"[2]; AB4027, read-out: MIC of Iron Chelators",250 µg/mL
same,MIC,"[2]; AB4052, read-out: MIC of Iron Chelators",250 µg/mL
same,MIC,"[2]; AB4269, read-out: MIC of Iron Chelators",125 µg/mL
same,MIC,"[2]; AB4448, read-out: MIC of Iron Chelators",250 µg/mL
same,MIC,"[2]; AB4456, read-out: MIC of Iron Chelators",250 µg/mL
same,MIC,"[2]; AB4490, read-out: MIC of Iron Chelators",250 µg/mL
same,MIC,"[2]; AB4498, read-out: MIC of Iron Chelators",250 µg/mL
same,MIC,"[2]; AB4795, read-out: MIC of Iron Chelators",250 µg/mL
same,MIC,"[2]; AB4857, read-out: MIC of Iron Chelators",250 µg/mL
same,MIC,"[2]; AB4878, read-out: MIC of Iron Chelators",250 µg/mL
same,MIC,"[2]; AB4932, read-out: MIC of Iron Chelators",250 µg/mL
same,MIC,"[2]; AB4957, read-out: MIC of Iron Chelators",250 µg/mL
same,MIC,"[2]; AB4991, read-out: MIC of Iron Chelators",125 µg/mL
same,MIC,"[2]; AB5001, read-out: MIC of Iron Chelators",250 µg/mL
same,MIC,"[2]; AB5075, read-out: MIC of Iron Chelators",250 µg/mL
same,MIC,"[2]; AB5197, read-out: MIC of Iron Chelators",250 µg/mL
same,MIC,"[2]; AB5256, read-out: MIC of Iron Chelators",250 µg/mL
same,MIC,"[2]; AB5674, read-out: MIC of Iron Chelators",250 µg/mL
same,MIC,"[2]; AB5711, read-out: MIC of Iron Chelators",250 µg/mL
same,MIC,"E. coli [3]; Escherichia coli, 35718, read-out: MIC of Iron Chelators",250 µg/mL
same,MIC,"E. coli [3]; Escherichia coli, ATCC43888, ATCC 43888 (0157:H7), read-out: MIC of Iron Chelators",250 µg/mL
same,MIC,"Acinetobacter baumannii [4]; ATCC17978, ATCC 17978, read-out: MIC of Iron Chelators",64 µg/mL
same,MIC,"Acinetobacter baumannii [4]; ATCC19606, ATCC 19606, read-out: MIC of Iron Chelators",125 µg/mL
same,MIC,"K. pneumonia [5]; ATCC700603, ATCC 700603, read-out: MIC of Iron Chelators",500 µg/mL
same,MIC,"K. pneumonia [5]; BAA2146, BAA-2146, read-out: MIC of Iron Chelators",500 µg/mL
same,MIC,"P. aeruginosa [6]; ATCC27853, ATCC 27853, read-out: MIC of Iron Chelators",> 500 µg/mL
same,MIC,"P. aeruginosa [6]; PAO1, read-out: MIC of Iron Chelators",500 µg/mL
same,MIC,"E. coli [7]; ATCC35218, ATCC 35218",250 µg/mL
same,MIC,"E. coli [7]; ATCC43888, ATCC 43888 (0157:H7)",250 µg/mL
same,MIC,"Acinetobacter baumannii [8]; ATCC17978, ATCC 17978, Table 1, read-out: MIC of Iron Chelators",250 µg/mL
same,MIC,"Acinetobacter baumannii [8]; ATCC19606, ATCC 19606, Table 1, read-out: MIC of Iron Chelators",250 µg/mL
same,MIC,"K. pneumonia [9]; ATCC700603, ATCC 700603",> 500 µg/mL
same,MIC,"K. pneumonia [9]; BAA2146, BAA-2146",> 500 µg/mL
same,MIC,"P. aeruginosa [10]; ATCC27853, ATCC 27853",> 500 µg/mL
same,MIC,P. aeruginosa [10]; PAO1,> 500 µg/mL
same,MIC,"S. aureus; ATCC25923, ATCC 25923",> 500 µg/mL
same,MIC,S. aureus; ATCC 43300 (MRSA),> 500 µg/mL
